The supplement of paper PMC12137928
Where a name gives a salt, the structure may show the parent alone.

Test system: HCT116
Conditions: 72 h
How it was run: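 HCT116 cells were plated at 250 per well in 1536-well plates and allowed 5 h to attach. CellTiter-Glo luminescence was normalized to vehicle as 0% and positive control as -100%, followed by pattern correction. Four-parameter Hill fits provided IC50 and maximal efficacy.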

| Compound | IC50 cell viability (ICRF193 0 nM) | IC50 cell viability (ICRF193 200 nM) |
| --- | --- | --- |
| CCN(CC)C(=O)N1CCN(C)CC1 [DIETHYLCARBAMAZINE CITRATE] | > 45.8 µM | > 45.8 µM |
| CN1[C@@H]2C[C@@H](OC(=O)[C@H](CO)c3ccccc3)C[C@H]1[C@@H]1O[C@@H]12 [Scopolamine hydrobromide] | > 45.8 µM | > 45.8 µM |
| CCCCC(=O)O[C@]1(C(=O)CO)CC[C@H]2[C@@H]3CCC4=CC(=O)CC[C@]4(C)[C@H]3[C@@H](O)C[C@@]21C [Hydrocortisone valerate] | > 45.8 µM | > 45.8 µM |
| O=C(O)CCCCC1CCSS1 (stereo not drawn) [alpha-Lipoic acid] | > 45.8 µM | > 45.8 µM |
| OC(CCN1CCCCC1)(c1ccccc1)C1CCCCC1 (centres undefined) [Trihexyphenidyl hydrochloride] | > 45.8 µM | > 45.8 µM |
| CC(=C(CCOC(=O)C(C)C)SSC(CCOC(=O)C(C)C)=C(C)N(C=O)Cc1cnc(C)nc1N)N(C=O)Cc1cnc(C)nc1N [Bisibutiamine] | > 45.8 µM | > 45.8 µM |
| CC(C)OC(=O)[C@H](C)N[P@](=O)(CO[C@H](C)Cn1cnc2c(N)ncnc21)Oc1ccccc1 [GS-7340] | > 45.8 µM | > 45.8 µM |
| CCN1CCN(C(=O)N[C@@H](C(=O)N[C@]2(OC)C(=O)N3C(C(=O)O)=C(CSc4nnnn4C)CS[C@@H]32)[C@H](C)O)C(=O)C1=O [Cefbuperazone] | > 45.8 µM | > 45.8 µM |
| O=C(O)CCCCCCCC(=O)O [Nonanedioic acid] | > 45.8 µM | > 45.8 µM |
| N#C[C@@H]1CCCN1C(=O)CNC12CC3CC(CC(O)(C3)C1)C2 [Vildagliptin] | > 45.8 µM | > 45.8 µM |
| C=Cc1c(C)c2cc3nc(c(CC(=O)N[C@@H](CC(=O)O)C(=O)O)c4[nH]c(cc5nc(cc1[nH]2)C(C)=C5CC)c(C)c4C(=O)O)[C@@H](CCC(=O)O)[C@@H]3C [Talaporfin sodium] | > 45.8 µM | > 45.8 µM |
| CC(C)CCON=O [3-Methylbutyl nitrite] | > 45.8 µM | > 45.8 µM |
| C[C@@H]1O[C@@H]1P(=O)(O)O [FOSFOMYCIN] | > 45.8 µM | > 45.8 µM |
| C#C[C@]1(O)CC[C@H]2[C@@H]3CCC4=CCCC[C@@H]4[C@H]3CC[C@@]21C [Lynestrenol] | > 45.8 µM | > 45.8 µM |
| CC(=O)O[C@H]1CC[C@@]2(C)C(=CC[C@H]3[C@@H]4CC[C@H](C(C)=O)[C@@]4(C)CC[C@@H]32)C1 [Pregnenolone acetate] | > 45.8 µM | > 45.8 µM |
| CCC(=O)Oc1ccc2c(c1)CC[C@@H]1[C@@H]2CC[C@@]2(C)[C@H]1C[C@@H](OC(=O)CC)[C@@H]2OC(=O)CC [Estriol tripropionate] | > 45.8 µM | > 45.8 µM |
| NC(=O)c1cc([N+](=O)[O-])cc([N+](=O)[O-])c1 [Nitromide] | > 45.8 µM | > 45.8 µM |
| CCCCNCC(O)c1ccc(O)cc1 (centres undefined) [Bamethan] | > 45.8 µM | > 45.8 µM |
| CC(C)(C)NCC(O)c1cc(Cl)c(N)c(C(F)(F)F)c1 (centres undefined) [Mabuterol hydrochloride] | > 45.8 µM | > 45.8 µM |
| CCC(=O)O[C@@H]1C=C2CC[C@@H]3[C@H](CC[C@]4(C)[C@@H](OC(=O)CC)CC[C@@H]34)C2CC1 (some centres undefined) [Bolandiol dipropionate] | > 45.8 µM | > 45.8 µM |
| O=[N+]([O-])c1nccn1COC(CO)C(O)CO (centres undefined) [Doranidazole] | > 45.8 µM | > 45.8 µM |
| CC1(C)O[C@@H]2C[C@H]3[C@@H]4C[C@H](F)C5=CC(=O)C=C[C@]5(C)[C@@]4(F)[C@@H](O)C[C@]3(C)[C@]2(C(=O)CO)O1 [Fluocinolone acetonide] | > 45.8 µM | > 45.8 µM |
| CN(C)[C@@H]1C(O)=C(C(N)=O)C(=O)[C@@]2(O)C(O)=C3C(=O)c4c(O)cccc4[C@@](C)(O)[C@H]3[C@H](O)[C@@H]12 [Oxytetracycline] | > 45.8 µM | > 45.8 µM |
| CCN(CC)CCNC(C(=O)OCCC(C)C)c1ccccc1 (centres undefined) [Camylofin] | > 45.8 µM | > 45.8 µM |
| CCC[C@@H]1C[C@@H](C(=O)N[C@@H]([C@H]2O[C@H](SC)[C@H](O)[C@@H](O)[C@H]2O)[C@@H](C)O)N(C)C1 [Lincomycin hydrochloride] | > 45.8 µM | > 45.8 µM |
| CNC(=O)c1c(I)c(C(=O)NCC(=O)Nc2c(I)c(C(=O)O)c(I)c(C(=O)NCCO)c2I)c(I)c(N(C)C(C)=O)c1I [Ioxaglic Acid] | > 45.8 µM | > 45.8 µM |
| FC(F)(F)C(F)(F)C(F)(F)C(F)(F)C(F)(F)C(F)(F)F [Perflexane] | > 45.8 µM | > 45.8 µM |
| CCCCC/C=C/C/C=C/CCCCCCCC(=O)NC(C)c1ccccc1 (centres undefined) [Melinamide] | > 45.8 µM | > 45.8 µM |
| OC[C@@H](O)[C@@H](O[C@@H]1O[C@H](CO)[C@H](O)[C@H](O)[C@H]1O)[C@H](O)[C@@H](O)CO [Lactitol] | > 45.8 µM | > 45.8 µM |

More lines, now with the values ahead:

| IC50 cell viability (ICRF193 0 nM) | IC50 cell viability (ICRF193 200 nM) | Compound |
| --- | --- | --- |
| > 45.8 µM | > 45.8 µM | CCC(=O)NS(=O)(=O)c1ccc(-c2c(-c3ccccc3)noc2C)cc1 [Parecoxib] |
| > 45.8 µM | > 45.8 µM | CCOc1ccc(NC(=O)CC(C)O)cc1 (centres undefined) [3-Hydroxy-4-butyrophenetidide] |
| > 45.8 µM | > 45.8 µM | CN(CCCN1c2ccccc2CCc2ccccc21)CC(=O)c1ccc(Cl)cc1 [Lofepramine hydrochloride] |
| > 45.8 µM | > 45.8 µM | N[C@@H](Cc1ccc(O)c(O)c1)C(=O)O [Levodopa] |
| > 45.8 µM | > 45.8 µM | COC(=O)N/N=C/c1c[n+]([O-])c2ccccc2[n+]1[O-] [Carbadox] |
| > 45.8 µM | > 45.8 µM | CN(CCOc1ccc(CC2SC(=O)NC2=O)cc1)c1ccccn1 (centres undefined) [Rosiglitazone] |
| > 45.8 µM | > 45.8 µM | Cc1ccccc1/N=N/c1ccc(/N=N/c2c(O)ccc3ccccc23)c(C)c1 [C.I. Solvent Red 24] |
| > 45.8 µM | > 45.8 µM | CC(C(=O)O)c1ccc(CC2CCCC2=O)cc1 (centres undefined) [Loxoprofen] |
| > 45.8 µM | > 45.8 µM | COCCOC(=O)C1=C(C)NC(C)=C(C(=O)OC(C)C)C1c1cccc([N+](=O)[O-])c1 (centres undefined) [Nimodipine] |
| > 45.8 µM | > 45.8 µM | CCCNS(=O)(=O)Nc1ncnc(OCCOc2ncc(Br)cn2)c1-c1ccc(Br)cc1 [Macitentan] |
| > 45.8 µM | > 45.8 µM | NCc1ccccc1CC(=O)N[C@@H]1C(=O)N2C(C(=O)O)=C(CSc3nnnn3CC(=O)O)CS[C@H]12 [Ceforanide] |
| > 45.8 µM | > 45.8 µM | O=C(OCc1ccccc1)c1ccc(O)cc1 [Benzylparaben] |
| > 45.8 µM | > 45.8 µM | CC[N+]1(CC)CCC(=C(c2ccccc2)c2ccccc2)C1C (centres undefined) [Prifinium bromide] |
| > 45.8 µM | > 45.8 µM | Cc1ccc2c(n1)Oc1ccc(C(C)C(=O)OCC(=O)N(C)C)cc1C2 (centres undefined) [Mepranoprofen arbamel] |
| > 45.8 µM | > 45.8 µM | COC(=O)Nc1nc2cc(Sc3ccccc3)ccc2[nH]1 [Fenbendazole] |
| > 45.8 µM | > 45.8 µM | Cc1c(-c2ccccc2)oc2c(C(=O)OCCN3CCCCC3)cccc2c1=O [Flavoxate hydrochloride] |
| > 45.8 µM | > 45.8 µM | CC[N+](C)(C)Cc1ccccc1Br [Bretylium tosylate] |

| IC50 cell viability (ICRF193 0 nM) | IC50 cell viability (ICRF193 200 nM) | Compound |
| --- | --- | --- |
| > 45.8 µM | > 45.8 µM | C[C@]12CCC3=C4CCC(=O)C=C4CC[C@H]3[C@@H]1CC[C@@]2(O)CC#N [Dienogest] |
| > 45.8 µM | > 45.8 µM | NC[C@H]1CC[C@H](C(=O)Oc2ccc(CCC(=O)O)cc2)CC1 [Cetraxate hydrochloride] |
| > 45.8 µM | > 45.8 µM | O=C(O)CCNC(=O)c1ccccc1 [Betamipron] |
| > 45.8 µM | > 45.8 µM | CN1C(C(=O)Nc2ccccn2)=C(O)c2sccc2S1(=O)=O [Tenoxicam] |
| > 45.8 µM | > 45.8 µM | CC(C)[C@H](N)C(=O)OCC(CO)OCn1cnc2c(=O)[nH]c(N)nc21 (some centres undefined) [Valganciclovir·HCl] |
| > 45.8 µM | > 45.8 µM | N#Cc1cc(-c2n[nH]c(-c3ccncc3)n2)ccn1 [Topiroxostat] |
| > 45.8 µM | > 45.8 µM | COc1ccc2[nH]cc(CCNC(C)=O)c2c1 [Melatonin] |
| > 45.8 µM | > 45.8 µM | O=C(O)c1ccccn1 [Picolinic acid] |
| > 45.8 µM | > 45.8 µM | Cc1nnc(C(=O)NC(C)(C)c2nc(C(=O)NCc3ccc(F)cc3)c(O)c(=O)n2C)o1 [Raltegravir] |
| > 45.8 µM | > 45.8 µM | Nc1nc2c(ncn2COCCO)c(=O)[nH]1 [Aciclovir] |
| > 45.8 µM | > 45.8 µM | COc1cc(C(=O)NCc2ccc(OCCN(C)C)cc2)cc(OC)c1OC [Trimethobenzamide hydrochloride] |
| > 45.8 µM | > 45.8 µM | Clc1ccc2nsnc2c1NC1=NCCN1 [Tizanidine hydrochloride] |
| > 45.8 µM | > 45.8 µM | O=C(O)Cc1ccccc1Nc1c(Cl)cccc1Cl [Diclofenac sodium] |
| > 45.8 µM | > 45.8 µM | CC(=O)Nc1c(I)cc(I)c(C(=O)O)c1I [Acetrizoic acid] |
| > 45.8 µM | > 45.8 µM | CCCCCN(CCCOC)C(=O)C(CCC(=O)O)NC(=O)c1ccc(Cl)c(Cl)c1 (centres undefined) [Loxiglumide] |
| > 45.8 µM | > 45.8 µM | CCN(CC)CCCN(c1ccccc1)C1Cc2ccccc2C1 [Aprindine hydrochloride] |
